In patent publication US11198695B2, “Fused ring derivative having MGAT-2 inhibitory activity” (Shionogi & Co., Ltd., priority 2017, dated 2021):
≈ marks a conversion by molar mass, not a printed value.

Key:
[1] = Solubility test (1% DMSO addition, pH 6.8 artificial intestinal juice); assay type: physicochemical; details: pH 6.8 artificial intestinal juice with 1% DMSO, kinetic from dmso stock, 16 hours at 25° C.
Method: The solubility of the compound of the present invention was determined under 1% DMSO addition conditions. 10 mmol/L solution of the compound was prepared with DMSO, and 6 μL of the solution of the compound of the present invention was added to 594 μL of pH 6.8 artificial intestinal juice (118 mL of 0.2 mol/L NaOH test solution and water were added to 250 mL of 0.2 mol/L potassium dihydrogen phosphate test solution to reach 1000 mL). The mixture was left standing for 16 hours at 25° C., and the mixture was vacuum-filtered. The filtrate was two-fold diluted with methanol/water=1/1 (V/V), and the compound concentration in the filtrate was measured with HPLC or LC/MS/MS by the absolute calibration method.

[2] = Metabolism stability test; assay type: in vitro ADME; details: human liver microsomes, 30 minutes, 37° C., NADPH, 0.5 μmol/L of test compound
Method: Using commercially available pooled human hepatic microsomes, the compound of the present invention was reacted for a constant time, a remaining rate was calculated by comparing a reacted sample and an unreacted sample, thereby, a degree of metabolism of the compound of the present invention in liver was assessed.
A reaction was performed (oxidative reaction) at 37° C. for 0 minute or 30 minutes in the presence of 1 mmol/L NADPH in 0.2 mL of a buffer (50 mmol/L Tris-HCl pH 7.4, 150 mmol/L potassium chloride, 10 mmol/L magnesium chloride) containing 0.5 mg protein/mL of human liver microsomes. After the reaction, 50 μL of the reaction solution was added to 100 μL of a methanol/acetonitrile=1/1 (v/v) solution, mixed and centrifuged at 3000 rpm for 15 minutes. The compound of the present invention in the supernatant was quantified by LC/MS/MS, and a remaining amount of the compound of the present invention after the reaction was calculated, letting a compound amount at 0 minute reaction time to be 100%. (Result) Remaining rate was shown at 0.5 μmol/L of test compound.

recombinant human MGAT2 = recombinant human MGAT2 (Homo sapiens (Human), UniProt Q3SYC2); experiment: Measurement of human MGAT2 inhibitory activity; assay type: biochemical; details: read-out: IC50 (concentration exhibiting 50% enzyme inhibition), Table 53
Sequence of recombinant human MGAT2 (Q3SYC2 whole entry): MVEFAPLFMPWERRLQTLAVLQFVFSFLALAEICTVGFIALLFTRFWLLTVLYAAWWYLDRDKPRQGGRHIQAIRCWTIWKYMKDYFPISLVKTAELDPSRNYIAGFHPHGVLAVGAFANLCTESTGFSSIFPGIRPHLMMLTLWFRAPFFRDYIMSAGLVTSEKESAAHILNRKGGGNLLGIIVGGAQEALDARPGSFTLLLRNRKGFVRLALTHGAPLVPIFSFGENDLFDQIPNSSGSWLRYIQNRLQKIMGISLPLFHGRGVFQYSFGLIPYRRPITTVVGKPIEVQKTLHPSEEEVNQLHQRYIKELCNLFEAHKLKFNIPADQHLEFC
Outline: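 RapidFire ESI-MS read-out of the diolein/diolein-d5 peak ratio gave % inhibition, with no-enzyme and full-enzyme wells as 100% and 0%. Reactions ran 1 h at room temperature at pH 7.4 (phosphate, 2 mmol/L DTT), using Flag-tagged human MGAT2 membranes from Sf9 cells and a substrate solution of 30 μmol/L 2-oleoylglycerol and 10 μmol/L oleoyl-CoA.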

solubility at 16 h [1] [µM]	Remaining rate (%) [2] [%]	IC50 (recombinant human MGAT2) [nM]	SMILES
> 50	102		CS(=O)(=O)CC(=O)Nc1c2c(nn1CCC1CC1)C[C@]1(CCc3cc(OCC(F)(F)F)ccc31)NC2=O [Compound I-8]
48.2 (≈ 27.8 µg/mL)	98.7		CS(=O)(=O)CC(=O)Nc1c2c(nn1-c1ccccn1)C[C@]1(CCc3cc(OCCCC(F)(F)F)ccc31)NC2=O [Compound I-23]
> 50	96.6		CS(=O)(=O)CC(=O)Nc1c2c(nn1-c1ccc(C#N)cn1)C[C@]1(CCc3cc(OCC(F)(F)F)ccc31)NC2=O [Compound I-190]
> 50	62.6		CS(=O)(=O)CC(=O)Nc1c2c(nn1CCCC(F)(F)F)C[C@@]1(CCc3cc(OCC(F)(F)F)ccc31)NC2=O [Compound I-212]
> 50	87.6		Cc1ccc(-n2nc3c(c2NC(=O)CS(C)(=O)=O)C(=O)N[C@@]2(CCc4cc(OCC(F)(F)F)ccc42)C3)nc1 [Compound I-236]
> 50	91.8		Cc1ccc(-n2nc3c(c2NC(=O)CS(C)(=O)=O)C(=O)N[C@@]2(CCOc4cc(OCC(F)(F)F)ccc42)C3)nc1 [Compound I-275]
> 50	103		CS(=O)(=O)CC(=O)Nc1c2c(nn1CCCOC(F)(F)F)C[C@@]1(CCc3cc(OCC(F)(F)F)cc(F)c31)NC2=O [II-93]
		0.409	CC(C)(C)c1cc(-n2nc3c(c2NC(=O)CS(C)(=O)=O)C(=O)N[C@@]2(CCOc4cc(OCC(F)(F)F)ccc42)C3)no1 [II-257]
		0.285	CS(=O)(=O)CC(=O)Nc1c2c(nn1-c1ccc(C(F)F)nn1)C[C@]1(CCc3cc(OCCCC(F)(F)F)ccc31)NC2=O [II-258]
		0.439	CS(=O)(=O)CC(=O)Nc1c2c(nn1-c1ccc(C3CC3)nn1)C[C@]1(CCc3cc(OCCCC(F)(F)F)ccc31)NC2=O [II-259]
		14	CS(=O)(=O)CC(=O)Nc1c2c(nn1CCC1CC1)C[C@]1(CCc3c1ccc(N1CC(F)(F)C1)c3F)NC2=O [II-260]
		1	CS(=O)(=O)CC(=O)Nc1c2c(nn1CCCOC(F)(F)F)C[C@@]1(CCc3cc(OCC(F)(F)C(F)(F)F)ccc31)NC2=O [II-261]
		8.83	O=C1N[C@@]2(CCc3cc(OCC(F)(F)F)ccc32)Cc2nn(CCCOC(F)F)c(C(=O)NS(=O)(=O)C3CC3)c21 [II-262]
		40	Cc1ccc(-n2nc3c(c2NC(=O)CC#N)C(=O)N[C@@]2(CCOc4cc(OCC(F)(F)F)ccc42)C3)nc1 [II-263]
		16.1	NS(=O)(=O)CCNC(=O)c1c2c(nn1CCCOC(F)F)C[C@]1(CCc3cc(OCC(F)(F)F)ccc31)NC2=O [II-264]
		54.4	O=C1N[C@@]2(CCc3cc(OCC(F)(F)F)ccc32)Cc2nn(CCCOC(F)F)c(C(=O)NCC3(O)CC3)c21 [II-265]
		1.81	Cc1cc(-n2nc3c(c2NC(=O)CS(C)(=O)=O)C(=O)N[C@@]2(CCOc4cc(Cl)ccc42)C3)no1 [II-266]
		1	Cc1cc(-n2nc3c(c2NC(=O)CS(C)(=O)=O)C(=O)N[C@@]2(CCOc4cc(CCC(F)(F)F)ccc42)C3)no1 [II-267]
		1.24	Cc1cc(-n2nc3c(c2NC(=O)CS(C)(=O)=O)C(=O)N[C@@]2(CCc4cc(OCCCC(F)(F)F)ccc42)C3)nn1C [II-268]
		11.7	Cc1ccc(-n2nc3c(c2NC(=O)CC(N)=O)C(=O)N[C@@]2(CCOc4cc(OCC(F)(F)F)ccc42)C3)nc1 [II-269]
		1.34	CNS(=O)(=O)CC(=O)Nc1c2c(nn1-c1ccc(C)cn1)C[C@]1(CCOc3cc(OCC(F)(F)F)ccc31)NC2=O [II-271]
		210	Cc1ccc(-n2nc3c(c2NC(=O)C2(S(C)(=O)=O)CC2)C(=O)N[C@@]2(CCOc4cc(OCC(F)(F)F)ccc42)C3)nc1 [II-272]
		14	N#Cc1ccc(-n2nc3c(c2C(=O)NS(=O)(=O)C2CC2)C(=O)N[C@]2(CCc4cc(OCC(F)(F)F)ccc42)C3)nc1 [II-273]
		6.67	Cc1ccc(-n2nc3c(c2C(=O)NS(=O)(=O)C2CC2)C(=O)N[C@@](c2ccc(OCC(F)(F)F)cc2F)(C(F)(F)F)C3)nc1 [II-274]
		1	CS(=O)(=O)CC(=O)Nc1c2c(nn1CCCOC(F)(F)F)C[C@@]1(CCc3cc(OCCCC(F)(F)F)ccc31)NC2=O [II-277]
		5.92	Cc1cc(-n2nc3c(c2NC(=O)CS(C)(=O)=O)C(=O)N[C@@]2(CCc4cc(C(F)(F)F)ccc42)C3)nn1C [II-278]
		1.12	CS(=O)(=O)CC(=O)Nc1c2c(nn1CCCOC(F)(F)F)C[C@@]1(CCOc3cc(C4CC4)ccc31)NC2=O [II-279]

solubility at 16 h [1] [µM]	Remaining rate (%) [2] [%]	IC50 (recombinant human MGAT2) [nM]	SMILES
		< 1	CS(=O)(=O)CC(=O)Nc1c2c(nn1CCCOC(F)(F)F)C[C@@]1(CCOc3cc(CCC(F)(F)F)ccc31)NC2=O [II-280]
		< 1	Cc1cc(-n2nc3c(c2NC(=O)CS(C)(=O)=O)C(=O)N[C@@]2(CCc4cc(OCCCC(F)(F)F)ccc42)C3)no1 [II-282]
		< 1	CS(=O)(=O)CC(=O)Nc1c2c(nn1CCCOC(F)(F)F)C[C@]1(CCc3cc(CCC(F)(F)F)ccc31)NC2=O [II-283]
		< 1	CS(=O)(=O)CC(=O)Nc1c2c(nn1CCCOC(F)(F)F)C[C@@]1(CCc3cc(CCC(F)(F)F)ccc31)NC2=O [II-284]
		1.04	CS(=O)(=O)CC(=O)Nc1c2c(nn1CCCOC(F)F)C[C@]1(CCc3cc(CCC(F)(F)F)ccc31)NC2=O [II-285]
		1.15	CS(=O)(=O)CC(=O)Nc1c2c(nn1CCCOC(F)F)C[C@@]1(CCc3cc(CCC(F)(F)F)ccc31)NC2=O [II-286]
		5.26	CS(=O)(=O)CC(=O)Nc1c2c(nn1-c1ccc(C(F)F)cc1)C[C@]1(CCc3cc(N4CC(F)(F)C4)ccc31)NC2=O [II-287]
		3.31	CC(F)(F)COc1ccc2c(c1)CC[C@]21Cc2nn(-c3ccc(C(F)F)cc3)c(NC(=O)CS(C)(=O)=O)c2C(=O)N1 [II-288]
		1.06	CCS(=O)(=O)CC(=O)Nc1c2c(nn1CCCOC(F)(F)F)C[C@@]1(CCOc3cc(OCC(F)(F)F)ccc31)NC2=O [II-289]
		< 1	CS(=O)(=O)CC(=O)Nc1c2c(nn1CCCOC(F)F)C[C@]1(CCc3cc(OCC4CC(F)(F)C4)ccc31)NC2=O [II-290]
		< 1	CS(=O)(=O)CC(=O)Nc1c2c(nn1CCCOC(F)F)C[C@@]1(CCc3cc(OCC4CC(F)(F)C4)ccc31)NC2=O [II-291]
		2.76	O=C1N[C@]2(CCOc3cc(OCC(F)(F)F)ccc32)Cc2nn(CCCOC(F)(F)F)c(NC(=O)C3CS(=O)(=O)C3)c21 [II-293]
		< 1	CS(=O)(=O)CC(=O)Nc1c2c(nn1-c1ccc(C(F)(F)F)cn1)C[C@]1(CCOc3cc(OCC(F)(F)F)ccc31)NC2=O [II-294]
		< 1	CS(=O)(=O)CC(=O)Nc1c2c(nn1-c1ccc(C3CC3)cn1)C[C@]1(CCOc3cc(OCC(F)(F)F)ccc31)NC2=O [II-296]
		< 1	CS(=O)(=O)CC(=O)Nc1c2c(nn1-c1ccc(C(F)F)cn1)C[C@]1(CCc3cc(OCC(F)(F)F)ccc31)NC2=O [II-297]
		< 1	CS(=O)(=O)CC(=O)Nc1c2c(nn1-c1ccc(C(F)F)cc1)C[C@]1(CCOc3cc(OCC(F)(F)F)ccc31)NC2=O [II-298]
		1.98	Cc1cc(-n2nc3c(c2NC(=O)CS(C)(=O)=O)C(=O)N[C@@]2(CCc4cc(CCC(F)(F)F)ccc42)C3)nn1C [II-299]
		< 1	Cc1cc(-n2nc3c(c2NC(=O)CS(C)(=O)=O)C(=O)N[C@](C)(c2ccc(CCC(F)(F)F)cc2F)C3)no1 [II-300]
		15.9	CS(=O)(=O)CC(=O)Nc1c2c(nn1-c1ccc(F)cc1)CC1(CN(c3ccc(C(F)(F)F)cc3)C1)NC2=O [II-301]
		3.61	Cc1ccc(-n2nc3c(c2NC(=O)CS(C)(=O)=O)C(=O)N[C@@]2(CCc4cc(C5CC5)ccc42)C3)nn1 [II-302]
		4.42	Cc1cc(-n2nc3c(c2NC(=O)CS(C)(=O)=O)C(=O)N[C@@]2(CCc4cc(C5CC5)ccc42)C3)nn1C [II-303]
		1.39	Cc1ccc(-n2nc3c(c2NC(=O)CS(C)(=O)=O)C(=O)N[C@@]2(CCc4cc(CCC(F)(F)F)ccc42)C3)nn1 [II-304]
		1	Cc1cc(-n2nc3c(c2NC(=O)CS(C)(=O)=O)C(=O)N[C@](C)(c2ccc(OCCCC(F)(F)F)cc2F)C3)no1 [II-305]
		11.3	Cc1cc(-n2nc3c(c2NC(=O)CS(C)(=O)=O)C(=O)N[C@@]2(CCc4cc(Cl)ccc42)C3)nn1C [II-306]
		6.19	Cc1ccc(-n2nc3c(c2NC(=O)CS(C)(=O)=O)C(=O)N[C@@]2(CCc4cc(Cl)ccc42)C3)nn1 [II-307]
		6.58	Cc1ccc(-n2nc3c(c2NC(=O)CS(C)(=N)=O)C(=O)NC2(C3)CN(c3ccc(C(F)(F)F)cc3)C2)nc1 (stereo not drawn) [II-308]
